Measured values as given in patent US4814432A, “Inhibitor of ribonucleotide reductase” (priority 1987, dated 1989).
Where a SMILES comes first, the peptide text is derived from it. Where no end group is shown, it is not given here. [ ]: non-standard residue; d: D form. The star is where a group is joined. Desaminotyrosyl = O=C(CCc1ccc(O)cc1)*; NMeY = CN[C@@H](Cc1ccc(O)cc1)C(=O)O; Aib = CC(C)(N)C(=O)O; Ava = NCCCCC(=O)O

Experiments:
[1] = target: Herpes Simplex Virus Ribonucleotide Reductase (HSV RR) (Human herpesvirus 2, UniProt P89462); experiment: biochemical
Chain of Herpes Simplex Virus Ribonucleotide Reductase (HSV RR) (P89462 whole entry): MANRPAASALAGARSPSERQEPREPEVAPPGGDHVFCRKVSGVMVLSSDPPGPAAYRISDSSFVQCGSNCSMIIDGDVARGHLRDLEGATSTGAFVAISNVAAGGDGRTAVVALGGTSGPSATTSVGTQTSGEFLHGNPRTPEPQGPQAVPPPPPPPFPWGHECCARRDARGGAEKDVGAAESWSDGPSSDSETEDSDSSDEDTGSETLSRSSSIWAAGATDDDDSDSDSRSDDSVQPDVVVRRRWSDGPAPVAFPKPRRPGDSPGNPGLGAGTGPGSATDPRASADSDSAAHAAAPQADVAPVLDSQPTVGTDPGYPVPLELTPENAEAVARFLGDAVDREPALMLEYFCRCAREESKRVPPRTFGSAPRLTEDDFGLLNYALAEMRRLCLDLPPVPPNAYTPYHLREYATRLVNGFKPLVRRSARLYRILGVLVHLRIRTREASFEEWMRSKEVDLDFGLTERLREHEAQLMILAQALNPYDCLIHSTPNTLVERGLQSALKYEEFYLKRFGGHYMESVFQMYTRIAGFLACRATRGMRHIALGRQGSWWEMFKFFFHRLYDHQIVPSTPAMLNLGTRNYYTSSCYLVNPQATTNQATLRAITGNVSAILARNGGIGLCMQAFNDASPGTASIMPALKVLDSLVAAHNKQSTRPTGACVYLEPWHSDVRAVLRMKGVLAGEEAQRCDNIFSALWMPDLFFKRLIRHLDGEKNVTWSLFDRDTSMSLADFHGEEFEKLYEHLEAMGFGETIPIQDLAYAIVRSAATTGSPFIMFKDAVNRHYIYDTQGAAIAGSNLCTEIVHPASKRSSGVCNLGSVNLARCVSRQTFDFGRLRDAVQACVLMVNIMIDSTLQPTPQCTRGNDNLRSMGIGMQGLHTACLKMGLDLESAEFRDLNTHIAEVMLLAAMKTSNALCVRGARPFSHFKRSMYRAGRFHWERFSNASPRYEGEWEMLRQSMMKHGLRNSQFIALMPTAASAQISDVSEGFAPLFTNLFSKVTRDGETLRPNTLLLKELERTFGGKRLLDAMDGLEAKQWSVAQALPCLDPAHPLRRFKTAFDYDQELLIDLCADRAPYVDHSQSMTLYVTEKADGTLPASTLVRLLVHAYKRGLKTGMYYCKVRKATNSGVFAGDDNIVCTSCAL
Description: HSV RR was purified from Baby Hamster Kidney cells that were cultured with HSV2 Strain 186. After infection, cells were harvested and lysed. Crude HSV RR was prepared as described by Huszar et al., J. Virol. 37: 580-588(1981) then subjected to further purification by hydroxyapatite column chromotography.
HSV RR activity was determined as the ability of the enzyme to catalyze the reduction of tritiated cytidine-diphosphate to deoxyribo-cytidine-diphosphate in 30 minutes at 37° C. in the presence of dithiothreitol and MgCl2. Activity of oligopeptide inhibitors was determined by adding them to the reaction mix at the beginning of the incubation. Enzyme was not preincubated with inhibitor.
Oligopeptides were synthesized by either the solid phase method of Merrified, op. cit., or by FMOC chemistry (John Morrow Stewart and Janis Dillaha Young, "Solid Phase Peptide Synthesis," 2nd ed, 1984, Pierce Chemical Co., Rockford, IL.) and purified to >98% homogeneity by reverse phase HPLC and recovered by lyophilization as trifluoroacetic acid salts. These were analyzed for amino acid composition and in some cases sequenced. Dry peptides were resuspended in 100 mM HEPES (pH 8.0) at about 2 mM, relyophilized, and stored in aliquots at -80° C. Immediately prior to use they were rehydrated with distilled H2 O and centrifuged to remove any undissolved peptide. The concentrations of these stock solutions were then determined by measuring A291 nm at basic pH (ε=2.55) for tyrosine-containing peptides and by quantitative amino acid composition for those peptides without tyrosine.

[2] = target: ribonucleotide reductase enzyme of herpes simplex virus (Human herpesvirus 1, UniProt P08543); settings: Dutia et al. and Cohen et al., Nature 321 (1986); cited from earlier work
[3] = target: T1, ribonucleotide reductase enzyme of herpes simplex virus (Human herpesvirus 1, UniProt P08543); settings: Dutia et al. and Cohen et al., Nature 321 (1986); cited from earlier work; remark: listed apart in the source
T1 sequence (P08543 whole entry, looked up): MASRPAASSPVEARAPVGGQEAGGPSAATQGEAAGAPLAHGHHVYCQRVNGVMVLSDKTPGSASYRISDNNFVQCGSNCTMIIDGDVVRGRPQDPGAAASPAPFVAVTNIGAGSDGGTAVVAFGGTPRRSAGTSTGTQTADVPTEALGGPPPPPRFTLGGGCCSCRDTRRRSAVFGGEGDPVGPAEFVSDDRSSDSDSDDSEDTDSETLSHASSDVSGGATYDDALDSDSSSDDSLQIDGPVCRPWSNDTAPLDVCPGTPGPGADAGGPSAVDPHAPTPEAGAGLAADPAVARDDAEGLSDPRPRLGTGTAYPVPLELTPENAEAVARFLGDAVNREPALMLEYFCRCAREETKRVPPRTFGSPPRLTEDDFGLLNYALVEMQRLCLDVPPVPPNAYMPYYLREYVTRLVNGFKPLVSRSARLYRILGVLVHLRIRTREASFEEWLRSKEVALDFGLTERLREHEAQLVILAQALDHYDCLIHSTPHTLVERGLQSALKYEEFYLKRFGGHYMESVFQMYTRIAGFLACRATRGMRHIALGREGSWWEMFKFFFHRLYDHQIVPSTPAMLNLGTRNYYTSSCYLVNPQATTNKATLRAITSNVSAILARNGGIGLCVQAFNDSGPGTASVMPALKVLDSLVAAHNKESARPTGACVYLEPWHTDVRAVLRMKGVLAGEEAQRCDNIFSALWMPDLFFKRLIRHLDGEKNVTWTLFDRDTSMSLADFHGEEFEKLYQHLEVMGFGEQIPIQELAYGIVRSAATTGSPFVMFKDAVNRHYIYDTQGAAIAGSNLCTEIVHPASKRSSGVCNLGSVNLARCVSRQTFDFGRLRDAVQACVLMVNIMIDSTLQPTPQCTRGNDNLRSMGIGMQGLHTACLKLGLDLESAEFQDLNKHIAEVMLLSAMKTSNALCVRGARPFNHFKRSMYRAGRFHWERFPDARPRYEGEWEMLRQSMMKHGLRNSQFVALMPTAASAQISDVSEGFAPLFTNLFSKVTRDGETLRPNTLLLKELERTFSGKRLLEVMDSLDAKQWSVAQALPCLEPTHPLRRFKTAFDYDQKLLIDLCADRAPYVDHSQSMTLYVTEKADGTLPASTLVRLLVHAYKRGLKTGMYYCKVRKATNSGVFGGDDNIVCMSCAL

Compound	IC50 [1] [µM]	also measured
CN[C@@H](Cc1ccc(O)cc1)C(=O)N[C@H](C(=O)N[C@H](C(=O)N[C@@H](CC(N)=O)C(=O)N[C@@H](CC(=O)O)C(=O)N[C@@H](CC(C)C)C(=O)O)C(C)C)C(C)C [MeNY V V N D L] (H-[NMeY]VVNDL-OH)	12	
COc1ccc(C[C@H](N)C(=O)N[C@H](C(=O)N[C@H](C(=O)N[C@@H](CC(N)=O)C(=O)N[C@@H](CC(=O)O)C(=O)N[C@@H](CC(C)C)C(=O)O)C(C)C)C(C)C)cc1 [MeOY V V N D L] (H-Y(Me)VVNDL-OH)	20	
CC(C)C[C@H](NC(=O)[C@H](CC(=O)O)NC(=O)C(C)(C)NC(=O)[C@@H](NC(=O)[C@@H](NC(=O)[C@H](C)NC(=O)CNC(=O)[C@H](C)NC(=O)[C@@H](N)Cc1ccc(O)cc1)C(C)C)C(C)C)C(=O)O [Y A G A V V J D L] (H-YAGAVV[Aib]DL-OH)	200	
CC(C)C[C@H](NC(=O)[C@H](CC(=O)O)NC(=O)[C@H](CC(N)=O)NC(=O)[C@@H](NC(=O)[C@@H](NC(=O)[C@H](Cc1ccc(O)cc1)NC(=O)CCCCNC(=O)[C@@H](N)Cc1ccc(O)cc1)C(C)C)C(C)C)C(=O)O [YBY V V N D L] (H-Y[Ava]YVVNDL-OH)	20	
CC(C)C[C@H](NC(=O)[C@H](CC(=O)O)NC(=O)[C@H](CC(N)=O)NC(=O)[C@@H](NC(=O)[C@@H](NC(=O)CCc1ccc(O)cc1)C(C)C)C(C)C)C(=O)O [desNH2Y V V N D L]	24	
CC(C)C[C@H](NC(=O)[C@H](CC(=O)O)NC(=O)[C@H](CC(N)=O)NC(=O)[C@@H](NC(=O)[C@@H](NC(=O)[C@H](C)NC(=O)CCc1ccc(O)cc1)C(C)C)C(C)C)C(=O)O [desNH2YA V V N D L] (Desaminotyrosyl-AVVNDL-OH)	160	
AAAVVNDL [A AA V V N D L]	77	
AVVDDL [A V V D D L]	195	
Ac-YVVNDL [AcY V V N D L]	18	
FAGAVVNDL [FA G A V V N D L]	56	
FVVNDL [F V V N D L]	65	
HVVNDL [H V V N D L]	46	
KKLEEFLKVVNDL [K K L E E FLK V V N D L]	200	
Tyr Ala Gly Ala Val Val Asn Asp Leu		inhibition in vitro of enzyme activity [2]: inhibited
WVVNDL [W V V N D L]	17	
YAAVVNDL [YAA V V N D L]	112	
YAGYVVNDL [Y A G Y V V N D L]	8	
YAPAVVNDL [Y A PA V V N D L]	14	
YGAVVNDL [8-desalanine homolog of the nonapeptide, Dutia et al]		inhibition in vitro of enzyme activity [3]: inhibited
YVVNDL [Y V V N D L]	15	
